# Measurements published in patent US8278267B2 (Amylin Pharmaceuticals, LLC, priority 2005, dated 2012).
# How the values were obtained:
# [1] = Pramlintide on weight and anthropometric parameters, 16-week double-blind placebo-controlled study in obese subjects; type: in vivo, human
# Method: In a randomized, double-blind, placebo-controlled study, changes in body weight and anthropometric parameters, as well as indicators of glycemic control (e.g., HbA1c), serum lipids and glucose tolerance, were assessed in response to pramlintide administration to obese (BMI≧30 kg/m^2 to ≦50 kg/m^2) non-diabetic individuals and obese individuals with non-insulin treated type 2 diabetes mellitus.
# [2] = Adsorption onto glass container in liquid form; type: physicochemical
# [3] = human trials; cited from earlier work
# [4] = Pramlintide on satiation and binge eating (Binge Eating Scale), single-blind placebo-controlled study in obese subjects; type: in vivo, human
# Method: The ability of the amylin agonist pramlintide to control or influence eating behavior was examined in human subjects. For the assessment, 24 hour-food intake (FI, ad-libitum meals), weight, feelings of hunger and fullness, and binge-eating (Binge Eating Scale, BES) were measured in a single-blind, placebo-controlled study. Obese subjects without eating disorders (50/50% female/male; BMI 35.61±3.98 kg/m^2, mean±SD) were randomized to six weeks of treatment with pramlintide or placebo. Pramlintide (180 μg) was administered subcutaneously three times per day (TID) prior to meals for 6 weeks and no lifestyle intervention was provided (TID evaluable N=59, placebo evaluable N=25). […] A follow-up evaluation of the subjects was performed four weeks after cessation of the treatment. In addition to the measurement of food intake and weight, subjects were also assessed for the feelings of hunger and fullness over a 12-hour observation period on the day before treatment, the first day of treatment, and on Day 43. During the study, subjects were categorized by binge-eating severity as mild, moderate, or severe based on total BES scores.
# [5] = Combination therapy amylin + sibutramine in DIO prone rats; type: in vivo, rat; settings: two weeks; for change in body weight (vehicle-corrected): amylin 100 μg/kg/day and/or sibutramine 3 mg/kg/day by mini-pumps; for fat mass / lean (protein) mass: amylin 100 μg/kg/day and/or sibutramine 3 mg/kg/day
# Method: In-bred DIO prone rats were obtained from Charles Rivers Labs. These rats were developed from a line of Crl:CD®(SD)BR rats that are prone to become obese on a diet relatively high in fat and energy (Levin, 1997). The rats were housed individually in shoebox cages at 22° C. in a 12/12-hour light dark cycle. […] At the end of the fattening period they typically have a mean body weight of 500 g. Rats were then divided into treatment groups and implanted with two subcutaneous mini-pumps (Durect Corp).
# [6] = Effect of amylin on high fat food preference, 11-week osmotic pump treatment; type: in vivo, rat
# Method: The ability of amylin to modify food preference was examined in an animal model. […] Animals had access to both low fat chow (6% fat kcal, 54% cornstarch kcal; #7012, Harlan Teklad, Madison, Wis.) and high fat chow (“palatable chow”) (58% fat kcal and 26% sucrose kcal; #D12311, Research Diets, New Brunswick, N.J.). Food intake and body weight were measured weekly. Just prior to treatment, and at the end of treatment, the amount of fat and lean tissue (expressed as g of tissue per 100 g of body weight) was measured via MRI (Echo MRI for rats, EchoMRI, Houston, Tex.).
# Energy expenditure was assessed using an Oxymax animal monitoring system (Columbus Instruments, Columbus, Ohio) to measure oxygen consumption and carbon dioxide generation over time. From these measurements, heat (in kcal) was calculated and energy expenditure assessed.
# [7] = Effect of amylin on body composition in DIO prone rats, 14 days of treatment then washout; type: in vivo, rat
# Method: Diet-induced obesity (DIO) in the in the Sprague-Dawley rat is a valuable model for the study of obesity and regulation of energy homeostasis. […] All rats were housed individually in shoebox cages at 22° C. in a 12/12-hour light dark cycle. Amylin was administered by subcutaneous osmotic mini-pump (Durect Corp, Calif.). […] On day 14, mini-pumps were removed and replaced with pumps containing vehicle. For body composition, rats were scanned in a specialized rodent NMR machine (Echo Medical Systems) prior to drug treatment, and at the conclusion of the experiment, which enabled the calculation of percent changes in fat and lean composition (e.g., % body fat after treatment−% body fat at baseline=change in % body fat).
# [8] = Effect of amylin on sucrose food preference, sugar withdrawal and restraint stress; type: in vivo, rat
# Method: The ability of amylin to modify food preference was examined in an animal model. Male, Sprague-Dawley® rats were submitted to a sugar withdrawal paradigm and observed for effects of stress on sugar intake. […] All rats were provided with ad libitum access to standard chow, water, and a 30% sucrose drink. Subsequently, the sucrose drink was removed and half of the rats were subjected, daily, to 3 h of mild restraint stress for 3 successive days. After 3 days, sucrose was provided and its daily average consumption was measured over 4 days. Chow intake was also measured over the 3 days of withdrawal and stress and over the following 4 days when sucrose was re-introduced. No restraint was applied during the 4 days of sucrose re-introduction. Results of this assay are shown in FIG. 1(A-D) where * is P<0.05 by ANOVA and Fisher LSD post-hoc analyses.
# [9] = cited from earlier work
# [10] = e.g., provoking marked hyperlactemia followed by hyperglycemia; cited from earlier work
# [11] = 16 weeks, least squares mean±SE
# [12] = after 16 weeks, evaluable population
# [13] = CSI (N = 47), Baseline (Day −1)
# [14] = TID (N = 59), Baseline (Day −1)
# [15] = pramlintide 180 μg s.c. TID, after 6 weeks
# [16] = at 11 weeks, compared to controls
# [17] = day 28, after amylin days 1-14 and vehicle days 15-28
# [18] = rat amylin 100 μg/kg/d s.c. mini-pump, days 2-14, vs vehicle controls
compound,measurement,setting,value
"CC[C@H](C)[C@H](NC(=O)[C@@H]1CCCN1C(=O)CNC(=O)[C@H](Cc1ccccc1)NC(=O)[C@H](CC(N)=O)NC(=O)[C@H](CC(N)=O)NC(=O)[C@H](CO)NC(=O)[C@H](CO)NC(=O)[C@H](Cc1c[nH]cn1)NC(=O)[C@@H](NC(=O)[C@H](CC(C)C)NC(=O)[C@H](Cc1ccccc1)NC(=O)[C@H](CC(N)=O)NC(=O)[C@H](C)NC(=O)[C@H](CC(C)C)NC(=O)[C@H](CCCNC(=N)N)NC(=O)[C@H](CCC(N)=O)NC(=O)[C@@H](NC(=O)[C@H](C)NC(=O)[C@@H]1CSSC[C@H](NC(=O)[C@@H](N)CCCCN)C(=O)N[C@@H](CC(N)=O)C(=O)N[C@@H]([C@@H](C)O)C(=O)N[C@@H](C)C(=O)N[C@@H]([C@@H](C)O)C(=O)N1)[C@@H](C)O)C(C)C)C(=O)N[C@@H](CC(C)C)C(=O)N1CCC[C@H]1C(=O)N1CCC[C@H]1C(=O)N[C@H](C(=O)N[C@@H](CC(N)=O)C(=O)N[C@H](C(=O)NCC(=O)N[C@@H](CO)C(=O)N[C@@H](CC(N)=O)C(=O)N[C@H](C(=O)N[C@@H](Cc1ccc(O)cc1)C(N)=O)[C@@H](C)O)C(C)C)[C@@H](C)O [Pramlintide, ^25,28,29Pro-h-amylin]",placebo-corrected reduction in hip circumference,[1]; [11],2.69±0.82 cm
same,placebo-corrected reduction in waist circumference,[1]; [11],2.691±1.08 cm
same,percentage of subjects achieving >5% reduction in baseline body weight,"[1]; Class I (BMI <35 kg/m^2), n 43, placebo 0%",39.5%
same,percentage of subjects achieving >5% reduction in baseline body weight,"[1]; Class II (BMI ≧35 kg/m^2 to <40 kg/m^2), n 25, placebo 0%",28.0%
same,percentage of subjects achieving >5% reduction in baseline body weight,"[1]; Class II (BMI ≧40 kg/m^2), n 29, placebo 5.0%",20.7%
same,placebo-corrected mean weight loss,[1]; [12],3.52 kg
same,"placebo-corrected mean weight loss, of initial body weight",[1]; [12],3.6%
same,subjects who lost ≧5% of body weight,"[1]; after 16 weeks, placebo 2%",31%
same,tendency to adsorb onto the glass,[2],does not have a tendency to adsorb onto the glass
same,weight or weight gain,[3],reduce weight or weight gain
same,reduction of mean total caloric intake compared with pooled placebo,"[4]; CSI 50 μg/h, Day 43",~7%
same,reduction of mean total caloric intake compared with pooled placebo,"[4]; CSI 50 μg/h, first day of treatment",approximately 22%
same,subjects with total BES score >17 to <27 (Moderate),[4]; [13],(36.2) %
same,subjects with total BES score ≦17 (Mild),[4]; [13],(51.1) %
same,subjects with total BES score ≧27 (Severe),[4]; [13],(12.8) %
same,subjects with total BES score >17 to <27 (Moderate),"[4]; CSI (N = 47), Day 42",(17.0) %
same,subjects with total BES score ≦17 (Mild),"[4]; CSI (N = 47), Day 42",(74.5) %
same,subjects with total BES score ≧27 (Severe),"[4]; CSI (N = 47), Day 42",(8.5) %
same,subjects with total BES score >17 to <27 (Moderate),"[4]; CSI (N = 47), Day 72",(14.9) %
same,subjects with total BES score ≦17 (Mild),"[4]; CSI (N = 47), Day 72",(63.8) %
same,subjects with total BES score ≧27 (Severe),"[4]; CSI (N = 47), Day 72",(8.5) %
same,subjects with total BES score >17 to <27 (Moderate),[4]; [14],(23.7) %
same,subjects with total BES score ≦17 (Mild),[4]; [14],(64.4) %
same,subjects with total BES score ≧27 (Severe),[4]; [14],(8.5) %
same,subjects with total BES score ≦17 (Mild),"[4]; TID (N = 59), Baseline (Day −1), listed as pramlintide",64.4%
same,subjects with total BES score >17 to <27 (Moderate),"[4]; TID (N = 59), Day 42",(11.9) %
same,subjects with total BES score ≦17 (Mild),"[4]; TID (N = 59), Day 42",(83.1) %
same,subjects with total BES score ≧27 (Severe),"[4]; TID (N = 59), Day 42",(5.1) %
same,subjects with total BES score ≦17 (Mild),"[4]; TID (N = 59), Day 42, listed as pramlintide",83.1%
same,subjects with total BES score >17 to <27 (Moderate),"[4]; TID (N = 59), Day 72",(13.6) %
same,subjects with total BES score ≦17 (Mild),"[4]; TID (N = 59), Day 72",(76.3) %
same,subjects with total BES score ≧27 (Severe),"[4]; TID (N = 59), Day 72",(5.1) %
same,reduction of mean total caloric intake compared with pooled placebo,"[4]; TID, Day 43",~15%
same,reduction of mean total caloric intake compared with pooled placebo,"[4]; TID, first day of treatment",approximately 17%
same,placebo-corrected reduction from baseline in mean BES score,[4]; after 6 weeks,−45±13%
same,proportion of subjects shifting to a lower binge-eating severity category,"[4]; after 6 weeks, placebo […]",24.6%
same,reductions from baseline in the total BES score after cessation,[4]; four weeks after cessation of treatment,no longer statistically significant
same,placebo-corrected reduction from baseline in 24-hour food intake,[4]; [15],-489 ± 183 kcal
same,placebo-corrected reduction from baseline in weight,[4]; [15],−2.2±0.5%
CC(C)CC(N(C)C)C1(c2ccc(Cl)cc2)CCC1 (stereo not drawn) [sibutramine],change in body weight (vehicle-corrected),[5],approximately 5%
same,fat mass,[5],Fat mass loss was also evident
same,lean (protein) mass,[5],relatively unchanged
Rat amylin,change in body weight (vehicle-corrected),[5],approximately 5%
same,fat mass,[5],Fat mass loss was also evident
same,lean (protein) mass,[5],increased
same,"24 h energy expenditure, dark phase increase",[6]; [16],6.6%
same,"24 h energy expenditure, light phase increase",[6]; [16],9.7%
same,"fat mass, change in percent of total mass","[6]; pre- vs post-treatment, MRI, vehicle 3.7±0.9",−3.6±1.0%
same,"lean tissue, change in percent of total mass","[6]; pre- vs post-treatment, MRI, vehicle −0.53±0.21, not significant",0.08±0.23%
same,percent total calories from low fat chow (main effect),"[6]; rat amylin 300 μg/kg/d, 11 weeks, vehicle 4.3±0.6",12.2±3.2%
same,body weight gain,"[6]; rat amylin 300 μg/kg/d, 11 weeks, vehicle 126±10",50 ± 11 g
same,calories from low fat chow (main effect),"[6]; rat amylin 300 μg/kg/d, 11 weeks, vehicle 271±42",633 ± 145 kcal
same,calories from high fat chow over 11 weeks (FIG. 2),"[6]; rat amylin 300 μg/kg/d, 11 weeks, vehicle 6315±111, mean±SEM",5309 ± 202 kcal
same,percent of body fat,[7]; [17],lower percent of body fat
same,percent of lean body mass,[7]; [17],higher percent of lean body mass
same,body weight,[7]; [18],significantly decreased
same,cumulative food intake,[7]; [18],significantly decreased
same,average sucrose to chow consumption ratio (as % of baseline),"[8]; rat amylin 300 μg/kg/d by osmotic pump, restraint-stressed rats, 4 days of sucrose re-introduction",prevents the increase in the average sucrose to chow consumption ratio
same,sucrose intake,"[8]; rat amylin 300 μg/kg/d, stressed and non-stressed rats, vs vehicle treated controls",decreases sucrose intake in both stressed and non-stressed conditions
same,stress-induced decrease in chow intake and total kcals,"[8]; rat amylin 300 μg/kg/d, treatment group vs control group",less pronounced in the treatment group
"^18Arg^25,28Pro-h-amylin (KCNTATCATQRLANFLVRSSNNFGPILPSTNVGSNTY)",solubility and stability characteristics compared to human amylin,[9],more desirable solubility and stability characteristics
same,amylin activity in vivo,[10],show amylin activity in vivo
"^25Pro^26Val^28,29Pro-h-amylin (KCNTATCATQRLANFLVHSSNNFGPVLPPTNVGSNTY)",solubility and stability characteristics compared to human amylin,[9],more desirable solubility and stability characteristics
^28Pro-h-amylin (KCNTATCATQRLANFLVHSSNNFGAILPSTNVGSNTY),amylin activity in vivo,[10],show amylin activity in vivo
des-^1Lys-h-amylin (CNTATCATQRLANFLVHSSNNFGAILSSTNVGSNTY),amylin activity in vivo,[10],show amylin activity in vivo
"des-^1Lys^18Arg^25,28Pro-h-amylin (CNTATCATQRLANFLVRSSNNFGPILPSTNVGSNTY)",amylin activity in vivo,[10],show amylin activity in vivo
